Measured values: patent US9895344B2, “Treating various disorders with 7,8-dihydroxyflavone and derivatives thereof” (EMORY UNIVERSITY, priority 2008, dated 2018)

Experiments:
hippocampal neurons = assay: Glutamate-triggered apoptosis in hippocampal neurons; format: cell-based; settings: pretreated 30 minutes, 50 μM glutamate for 16 hours, compared with BDNF, FIG. 6
Protocol: To examine whether these compounds could promote neuronal survival, hippocampal neurons were prepared and the cultures were pretreated with various flavone derivatives for 30 minutes, followed by treatment with 50 μM glutamate for 16 hours.

[1] = target: T1, TrkB intracellular domain (ICD) (Rattus norvegicus, UniProt Q63604); assay: In vitro binding assay with [3H]7,8-dihydroxyflavone: TrkB ICD; settings: gradual increments of [3H]-7,8-dihydroxyflavone
T1 construct: purified TrkB extracellular domain (ECD) and intracellular domain (ICD) recombinant proteins
Protocol: To determine whether 7,8-dihydroxyflavone physically and directly binds the TrkB receptor, in vitro binding assays were conducted with purified TrkB extracellular domain (ECD) and intracellular domain (ICD) recombinant proteins. Purified TrkB ECD and ICD (10 μg of each) were incubated with different concentrations of ^3H-7,8-dihydroxyflavone in 1 ml of binding buffer (0.05M Na/K phosphate buffer, pH 7.1, 200 mM NaCl) at 4° C. for 10 minutes. After the incubation, the reaction mixture was loaded on filter paper. The mixture was washed three times with Tris buffer (100 mM Tris, pH 7.1), and the dried filter paper was put into a small vial and subjected to liquid scintillation counter analysis. […] The value of the dissociate constant and the number of sites were obtained from Scatchard plots using the equation r/[L]free=n/Kd−r/Kd, where r is the ratio of the concentration of bound ligand to the total protein concentration and n is the number of binding sites.

GST-TrkB ECD = GST-TrkB ECD (Rattus norvegicus, UniProt Q63604); assay: In vitro binding assay with immobilized GST-TrkB ECD on glutathione beads, UV-spectrometry of eluate; settings: 500 nM, 4° C., 30 minutes, FIG. 17
Protocol: To further explore the association of 7,8-dihydroxyflavone and the TrkB receptor, an in vitro binding assay was performed. Increasing volumes of GST-TrkB ECD and GST-TrkB ICD were bound to glutathione beads to a total of 250 uL, and 500 nM 7,8-dihydroxyflavone in 250 μl (20% DMSO/80% PBS) was incubated with the beads in the column at 4° C. for 30 minutes. After the incubation, the elute fractions were collected and the concentration of eluted 7,8-dihydroxyflavone was analyzed by UV-spectrometry at a wavelength of 410 nm.

Caspase-3 activation = assay: Glutamate-provoked Caspase-3 activation in wild-type and TrkB-/- cortical neurons; format: cell-based, mice; settings: FIG. 21
Protocol: To determine whether 7,8-dihydroxyflavone can selectively activate TrkB receptor and prevent neuronal cell death, cortical neurons were prepared from homozygous pups of TrkB+/−mice, which were mated to the same genotype. […] Glutamate nonselectively elicited weak TrkA phosphorylation in both wild-type and TrkB-null neurons (FIG. 21, row 3).

TrkB [2] = target: T2, TrkB (Mus musculus, UniProt P15209); assay: Trk activation in wild-type and TrkC knockout cortical neurons: TrkB; format: cell-based, mice; settings: FIG. 22
T2 construct: from tissue; host or cells: mouse brain
Protocol: To further assess whether 7,8-dihydroxyflavone blocks neuronal apoptosis in a TrkB dependent manner, cortical neurons were prepared from homozygous pups of TrkC+/−mice, which were mated to the same genotype. […] Glutamate weakly stimulated both TrkA and TrkB faint phosphorylation regardless of TrkC genotype (FIG. 22, rows 1 and 3). The spontaneous caspase-3 activation in TrkC−/− neurons was suppressed by 7,8-dihydroxyflavone (FIG. 22, row 5).

[3] = system: progenitor proliferation in hippocampus; assay: Neurogenesis analysis in hippocampus (BrdU); format: in vivo, C57BL/6J mice; settings: 5 mg/kg daily for 21 days, compared to vehicle control, FIGS. 32 and 33
Protocol: Adult male mice (2-3 months old) were orally injected with saline, 4′-DMA-7,8-DHF and 7,8-DHF (5 mg/kg) for 21 days. Then BrdU (50 mg/kg) was i.p. injected. In 2 hours, the mice were perfused with 4% paraformaldehyde. Immunohistochemical staining was performed on formalin-fixed paraffin-embedded sections. Sections from brain were cut, deparaffinized in xylene and rehydrated in graded alcohols. The slides were boiled in 10 mM citric acid (pH 6.0) for 10 minutes followed by an incubation in 2 N HCl for 10 minutes in room temperature. The slides were then permeabilized and blocked with 1% BSA in 0.2% PBST. The incorporated BrdU were stained using anti-BrdU-FITC (Abcam, Inc; Cambridge, Mass.) at 4° C. for 16 hours. After three washes in PBS, the cells were stained with DAPI for another 10 minutes at room temperature. The slides were mounted with AquaMount (Lerner Laboratories; Pittsburgh, Pa.) containing 0.01% 1,4-diazobicyclo(2,2,2)octane and examined under a fluorescence microscope.
To test whether increasing TrkB activation by 4′-dimethylamino-7,8-dihydroxyflavone would elevate neurogenesis, adult male C57BL/6J mice were injected daily for 21 days with either vehicle, 7,8-DHF, or 4′-DMA-7,8-DHF (5 mg/kg). At the end of treatment (day 21), the animals were injected with BrdU (50 mg/kg, i.p.) to label the dividing cells and were sacrificed 2 hours later. […]

immobility time = assay: Forced swim test in TrkB F616A knockin mice with saline or 1NMPP1 pretreatment; format: in vivo; settings: drugs for five days, FIG. 36
Protocol: To assess whether the behavior responses by 7,8-DHF and its derivative are mediated by TrkB receptor, TrkB F616A knockin mice were utilized. The transgenic mice were subjected to saline or 1NMPP1 pretreatment (25 μM), respectively (drinking water provided one day prior to drug injection and maintained throughout whole experiment). The control and/or drugs were provided for five days. […] (Data presented in FIGS. 34, 35, and 36 as mean±SEM; *p<0.05 against vehicle, #P<0.01 against vehicle and ***P<0.0001 against vehicle, student t-test.)

TrkA = TrkA (Mus musculus, UniProt Q3UFB7); assay: TrkA phosphorylation in mouse brain after intraperitoneal injection; format: in vivo, mice; set-up: from tissue; host or cells: mouse brain; settings: 5 mg/kg intraperitoneally, 2 hours after injection, FIG. 12
Protocol: To assess whether 7,8-dihydroxyflavone can provoke TrkB activation in the brain, mice were intraperitoneally injected with a dose of 5 mg/kg and analyzed at various time points. […] Further, as shown in FIG. 12 (right panel), the protein and mRNA levels of the neurotrophic receptors were not altered after treatment with 7,8-dihydroxyflavone.

TrkB [4] = target: TrkB (Rattus norvegicus, UniProt Q63604); assay: Western analysis of TrkB activation in hippocampal neurons; format: cell-based; set-up: endogenous in cells; host or cells: primary hippocampal neurons; settings: FIG. 9
Protocol: To further examine whether 7,8-dihydroxyflavone can stimulate TrkB-mediated downstream signaling cascades, Western analysis was performed.
To further test that the stimulatory effect of 7,8-dihydroxyflavone is mediated through TrkB, cells were either untreated or treated with K252a, a selective inhibitor of the tyrosine kinase activity of the Trk family of neutrophin receptors.

T2 sequence (P15209 32-821): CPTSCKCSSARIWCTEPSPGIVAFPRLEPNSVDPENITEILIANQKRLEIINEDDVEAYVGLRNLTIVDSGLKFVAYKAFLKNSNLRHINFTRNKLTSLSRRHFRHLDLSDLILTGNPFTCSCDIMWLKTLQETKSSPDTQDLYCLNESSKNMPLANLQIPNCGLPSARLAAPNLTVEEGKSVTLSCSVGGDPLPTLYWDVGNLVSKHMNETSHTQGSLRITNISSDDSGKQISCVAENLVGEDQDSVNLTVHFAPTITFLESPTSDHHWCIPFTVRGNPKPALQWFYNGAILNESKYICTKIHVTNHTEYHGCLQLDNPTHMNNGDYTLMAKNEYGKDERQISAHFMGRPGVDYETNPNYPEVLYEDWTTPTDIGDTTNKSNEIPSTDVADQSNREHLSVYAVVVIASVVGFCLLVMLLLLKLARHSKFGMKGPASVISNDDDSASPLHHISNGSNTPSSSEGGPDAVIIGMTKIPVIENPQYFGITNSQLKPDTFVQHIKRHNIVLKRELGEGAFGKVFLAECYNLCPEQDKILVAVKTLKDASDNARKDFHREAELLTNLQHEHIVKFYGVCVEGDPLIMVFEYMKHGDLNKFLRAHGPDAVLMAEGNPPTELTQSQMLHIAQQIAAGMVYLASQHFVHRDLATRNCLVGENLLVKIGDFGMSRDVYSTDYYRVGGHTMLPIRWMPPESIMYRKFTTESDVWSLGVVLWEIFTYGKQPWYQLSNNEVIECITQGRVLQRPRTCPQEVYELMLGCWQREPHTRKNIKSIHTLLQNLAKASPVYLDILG
GST-TrkB ECD, sequence (Q63604 32-429 limits assumed): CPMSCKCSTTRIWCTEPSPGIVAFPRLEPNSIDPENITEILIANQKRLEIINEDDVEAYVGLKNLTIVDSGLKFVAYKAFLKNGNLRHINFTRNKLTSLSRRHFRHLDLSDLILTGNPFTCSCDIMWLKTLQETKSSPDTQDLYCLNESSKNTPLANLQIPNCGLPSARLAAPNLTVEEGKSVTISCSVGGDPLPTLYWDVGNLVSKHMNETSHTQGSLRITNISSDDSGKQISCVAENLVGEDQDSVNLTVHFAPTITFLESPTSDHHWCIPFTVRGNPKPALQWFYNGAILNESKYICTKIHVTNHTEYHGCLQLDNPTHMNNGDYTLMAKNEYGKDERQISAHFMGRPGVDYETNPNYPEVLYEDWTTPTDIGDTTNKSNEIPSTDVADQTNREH
TrkA, sequence (Q3UFB7 34-799): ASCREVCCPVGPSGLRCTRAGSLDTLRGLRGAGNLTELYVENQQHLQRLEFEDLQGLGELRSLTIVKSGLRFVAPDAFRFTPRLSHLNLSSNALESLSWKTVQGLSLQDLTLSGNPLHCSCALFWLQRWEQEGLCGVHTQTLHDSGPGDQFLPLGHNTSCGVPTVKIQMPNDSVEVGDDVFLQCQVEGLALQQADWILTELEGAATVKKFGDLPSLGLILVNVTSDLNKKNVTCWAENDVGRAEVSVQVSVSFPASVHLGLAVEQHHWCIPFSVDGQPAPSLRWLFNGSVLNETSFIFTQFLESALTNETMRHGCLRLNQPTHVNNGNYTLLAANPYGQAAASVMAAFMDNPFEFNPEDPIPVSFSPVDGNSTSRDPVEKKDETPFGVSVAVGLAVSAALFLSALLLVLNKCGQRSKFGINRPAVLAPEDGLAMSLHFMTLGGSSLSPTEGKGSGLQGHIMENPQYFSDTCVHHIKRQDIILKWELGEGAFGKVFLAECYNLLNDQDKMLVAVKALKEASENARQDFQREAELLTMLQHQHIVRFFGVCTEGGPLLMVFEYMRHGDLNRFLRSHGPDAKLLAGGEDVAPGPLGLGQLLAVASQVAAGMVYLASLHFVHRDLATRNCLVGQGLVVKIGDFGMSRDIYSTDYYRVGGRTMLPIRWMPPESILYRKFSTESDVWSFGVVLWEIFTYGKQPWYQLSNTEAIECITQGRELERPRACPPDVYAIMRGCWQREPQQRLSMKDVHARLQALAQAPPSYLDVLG
T1 sequence (Q63604 454-821 limits assumed): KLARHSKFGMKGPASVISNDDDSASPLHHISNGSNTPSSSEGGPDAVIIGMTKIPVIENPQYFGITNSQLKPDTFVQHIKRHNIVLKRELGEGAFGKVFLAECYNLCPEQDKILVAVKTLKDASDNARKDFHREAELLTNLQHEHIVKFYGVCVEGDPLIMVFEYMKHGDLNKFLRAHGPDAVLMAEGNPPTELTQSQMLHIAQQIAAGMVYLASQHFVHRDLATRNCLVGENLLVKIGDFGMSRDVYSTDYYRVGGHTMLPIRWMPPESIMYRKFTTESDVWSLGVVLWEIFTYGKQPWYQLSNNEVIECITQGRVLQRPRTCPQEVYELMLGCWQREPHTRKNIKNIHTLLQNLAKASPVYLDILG
TrkB (Rattus norvegicus, UniProt Q63604), sequence (Q63604 32-821): as the sequence (P15209 32-821) above, with T3M, S9T, A10T, V32I, R63K, S84G, M153T, L185I, S394T, S770N counted along it

O=c1cc(-c2ccccc2)oc2c(O)c(O)ccc12 [7,8-dihydroxyflavone]
protection of hippocampal neurons from glutamate-induced apoptosis (hippocampal neurons): more protective effect on the neurons than did the positive control BDNF | binding to TrkB ICD [1]: not ICD | concentration of eluted compound as GST-TrkB ECD volumes increased (GST-TrkB ECD): decreased | Glutamate-provoked Caspase-3 activation in TrkB-/- neurons (Caspase-3 activation): not | Glutamate-provoked Caspase-3 activation in wild-type neurons (Caspase-3 activation): substantially blocked | TrkB activation in wild-type and TrkC knockout neurons (TrkB [2]): provoked TrkB | neurogenesis (BrdU) [3]: increased neurogenesis | immobility time after 1NMPP1 treatment (immobility time; 1NMPP1 25 μM in drinking water): neither 4′-DMA-7,8-DHF nor 7,8-DHF had any significant effect | immobility time, saline group (immobility time): substantially reduced the immobility time | TrkA phosphorylation in the brain (TrkA): not TrkA | activation of TrkB (Western) (TrkB [4]): demonstrated activation of TrkB
